One compound from patent publication US20220264883A1, “IMIDAZOTHIAZOLE COMPOUNDS AND METHODS FOR TREATING PLANT NEMATODE INFECTIONS” (The Governing Council of the University of Toronto, priority 2019, published 2022) can be followed below.

Broadly, the viability is the share of living cells, or the viability signal relative to a control. By minimal effective concentration is commonly meant the lowest level tested that produced the effect sought. Read a high minimal effective concentration as weaker potency.

The structures appear in SMILES notation. Where “and” joins values, the source holds several entries; their conditions need not be identical. Equal entries are not always repeated.

For data set [1], the system named is C. elegans. The data set can be described thus: C. elegans viability at a single concentration (Table 3). The class given is in vivo. The following applies: Caenorhabditis elegans; 50 μM (compound If). As for the experimental part: (§1) Forty microliters of an HB101 bacterial suspension in liquid NGM (see above) was added to each well of a 96-well flat-bottom culture plate, after which approximately 25 synchronized L1 worms, in 10 μl of M9 buffer (see ref. 59 for the recipe), were added to each well. The synchronized L1 worms were obtained from an embryo preparation performed the previous day (see ref. 59 for the protocol). For the L1 assays, 0.5 μl of chemical solution (or DMSO alone) was immediately added to the wells using a multichannel pipette, the final DMSO concentration is 1% (v/v). The worms were incubated for 3 days at 20° C. and the number of viable animals was counted. […] Although the counts were performed after 3 days of incubation in the chemical, it was noted that the L1s were dead within 24 hours of the addition of the chemicals. For the L2/L3 assays, the worms were incubated in the absence of chemical for 1 day at 20° C. until they reached the L2/L3 stage, at which point chemical was added as described above. The worms were then allowed to incubate for 2 days at 20° C. and the number of viable animals was counted as described for the L1 assay. For the L4 assays, the worms were incubated for 2 days at 20° C. before the addition of chemicals. The L4-stage worms were then incubated in chemical for an additional day before quantifying the number of viable animals. The adult assays were performed the same way as the L4 assays, however HT115 E. coli carrying the empty dsRNA expressing vector L4440 was used in place of HB101 and the worms were cultured at 25° C. as opposed to 20° C. for the entirety of the experiment. The HT115 suspension was made by concentrating a bacterial culture, with an OD600 of ˜ 0.8, five-fold with liquid NGM containing 1 mM IPTG and 100 μg/ml carbenicillin. The HT115 cells were induced with 1 mM IPTG for one hour before concentrating with NGM.
(§2) The ability of exemplary compounds of the application to kill C. elegans at 100 μM (except for compound If which was tested at 50 μM) and to affect the mobility of M. chitwoodi at 45 μM was tested as described above for M. incognita infective juveniles. Percent mobility was measured after 2 days of chronic exposure to test compounds (Table 3).

Data set [2] concerns M. chitwoodi. The data set can be described thus: Root-knot nematode M. chitwoodi mobility (Table 3). In kind it is in vivo, Meloidogyne chitwoodi. The following applies: 45 μM, 2 days of chronic exposure. As for the experimental part:
(§3) M. incognita (Kofoid & White) Chitwood Race 1 (originally isolated in Maryland) was used for all experiments, and was maintained on pepper (Capsicum annuum L.) cv. PA-136 in a greenhouse as previously described^64. Infective J2 juveniles were collected as described in ref.65. The microwell dose-response experiments were carried out similarly to previously described protocols^64, 66. In brief, 100 J2s, in 10 μL of deionized water, were added to the wells of 96-well polystyrene plates, after which 190 μL of deionized water containing dissolved chemical, or DMSO alone, was added to each well. The chemicals were tested at 45 μM, and the final concentration of DMSO in each well was 0.5% (v/v). The wells were covered with a plastic adhesive strip, and the lids of the plates were sealed with parafilm. The plates were incubated at 25° C. The mobile fraction of worms was quantified by counting the number of mobile and immobile worms after 2 days of incubation, and then dividing the number of mobile worms by the total number of worms in the well. Three technical replicates were performed for each treatment, and an average value for the mobile fraction of worms was calculated across the three replicates. The percent effectiveness at inhibiting nematode movement was calculated by dividing the average value for the chemical treatment by the average value for the DMSO control, then subtracting this value from 1, and then multiplying by 100.
M. chitwoodi race 1 (the strain commonly found in the pacific northwest of the United States) was used for all experiments, and was maintained on tomato plants (Solanum lycopersicum ‘Rutgers’) as previously described^73. The M. chitwoodi in vitro assays were performed identically to the M. incognita in vitro assays (see above).
as §2

The test system of data set [3] is C. elegans. The data set can be described thus: C. elegans minimum lethal concentration dose-response. In kind it is in vivo, Caenorhabditis elegans. The following applies: Caenorhabditis elegans, C. elegans viability. As for the experimental part:
as §1
Compounds Ia to Im, dose-response assays were performed with C. elegans. 8 of the compounds killed C. elegans with minimum lethal concentrations less than or equal to 100 μM (Table 6). Compounds Ia, Ic, and Ij were the most potently lethal nematicides in this assay, having minimum lethal concentrations of 6.25 μM and below. The positive control nematicide tioxazafen killed nematodes at 3.13 μM and above.

Data set [4] deals with M. incognita J2 larvae. The data set can be described thus: Meloidogyne incognita in vitro assays (J2 movement). The class given is in vivo. The following applies: 45 μM, 2 days, relative to DMSO control. As for the experimental part: as §3
Data set [5] concerns M. chitwoodi. Nature of the data set: Meloidogyne chitwoodi infectivity assays (tomato roots in soil). The class given is in vivo. The following applies: 45 μM in soil, 8 weeks, egg counts relative to DMSO control. As for the experimental part: An M. incognita population originally collected from grape (Vitis vinifera) in Parlier, Calif., was used for all experiments, and they were maintained on tomato plants (Solanum lycopersicum ‘Rutgers’) as previously described^73. Infective J2 juveniles were collected as described in^73. For the infectivity assays, 90 grams of soil (1:1 sand:loam mix) was added to each cell of several 6-cell plastic garden packs. The soil was drenched with 18 mL of deionized water containing dissolved chemical or DMSO alone. 2,500 infective J2 juveniles were then added to the soil in 2 mL of deionized water, for a total water volume of 20 mL. The final concentration of the chemicals in water was 45 μM. The DMSO concentration varied from 0.1% to 0.8% (v/v) depending on the stock concentration of the chemical. The highest DMSO concentration was used as the DMSO control. The J2s were incubated in the soil and chemical for 24 hours, after which two- to three-week old tomato seedlings were transplanted into the soil (one plant per cell). […] The number of eggs from each plant root was counted on a dissection microscope using a haemocytometer, and the number of eggs per milligram of root was calculated by dividing the total egg number by the mass of the dried root material. […] An average percent effectiveness value was then calculated across the two different batches carried out on different days. […]

The test system of data set [6] is tomato plants. The data set can be described thus: Root mass of tomato plants in the infectivity assays. In kind it is in vivo, Solanum lycopersicum. The following applies: 45 μM. As for the experimental part: An M. incognita population originally collected from grape (Vitis vinifera) in Parlier, Calif., was used for all experiments, and they were maintained on tomato plants (Solanum lycopersicum ‘Rutgers’) as previously described^73. Infective J2 juveniles were collected as described in^73. For the infectivity assays, 90 grams of soil (1:1 sand:loam mix) was added to each cell of several 6-cell plastic garden packs. The soil was drenched with 18 mL of deionized water containing dissolved chemical or DMSO alone. 2,500 infective J2 juveniles were then added to the soil in 2 mL of deionized water, for a total water volume of 20 mL. The final concentration of the chemicals in water was 45 μM. The DMSO concentration varied from 0.1% to 0.8% (v/v) depending on the stock concentration of the chemical. The highest DMSO concentration was used as the DMSO control. The J2s were incubated in the soil and chemical for 24 hours, after which two- to three-week old tomato seedlings were transplanted into the soil (one plant per cell). Two replicates were performed for each chemical treatment, and four replicates were done for the DMSO controls. The whole experiment was replicated twice, in two different batches on two different days, for a total of four replicates for each chemical treatment, and eight replicates for the DMSO controls. Inoculated plants were grown for 8 weeks in a greenhouse, as described^73, under long-day conditions (16-h photoperiod) with 26/18° C. day/night temperatures. After 8 weeks, the plants were destructively harvested. The tops were removed and discarded, and roots were gently washed with water to remove adhering soil. Eggs were extracted by placing rinsed roots in 0.6% sodium hypochlorite and agitating at 300 rpm for 3 min. Roots were then rinsed over nested 250- and 25.4-μm sieves, with eggs collected from the latter and suspended in water. Roots were dried in a 65° C. oven for at least 24 hours, after which dry roots were weighed. The number of eggs from each plant root was counted on a dissection microscope using a haemocytometer, and the number of eggs per milligram of root was calculated by dividing the total egg number by the mass of the dried root material. An average was taken across the replicates performed on the same day, and then normalized to the DMSO control average. To calculate percent effectiveness at inhibiting reproduction, the normalized values were subtracted from 1, and then multiplied by 100. An average percent effectiveness value was then calculated across the two different batches carried out on different days.

Turning to `Cc1csc2nc(-c3ccc(Cl)cc3)cn12` [Compound If], the viability at 50 µM in data set [1] was determined as 19.8%. The compound further displayed an RKN mobility in data set [2] of 0.6%. Further, the minimal effective concentration in data set [3] was 25 µM and 6.2 µg/mL. Moreover, the “% effectiveness at reducing M. incognita movement” value in data set [4] amounted to 3.5%. Further, the “% effectiveness at inhibiting reproduction of M. chitwoodi” value in data set [5] stood at 46.2%. In addition, the “Normalized root mass (relative to DMSO control)” value in data set [6] is 1.3.
